Literature values as cited in patent US20250152568A1, “METHODS OF TREATING COMPLEX REGIONAL PAIN SYNDROME” (Aisa Pharma, Inc., priority 2022, published 2025).

Biological target: Nav 1.7 sodium channel (Homo sapiens, UniProt Q15858)
Settings: 20 mg dose of cilnidipine vs 1800 mg dose of gabapentin; see WO2021/178903

Sequence of Nav 1.7 sodium channel (Q15858 whole entry): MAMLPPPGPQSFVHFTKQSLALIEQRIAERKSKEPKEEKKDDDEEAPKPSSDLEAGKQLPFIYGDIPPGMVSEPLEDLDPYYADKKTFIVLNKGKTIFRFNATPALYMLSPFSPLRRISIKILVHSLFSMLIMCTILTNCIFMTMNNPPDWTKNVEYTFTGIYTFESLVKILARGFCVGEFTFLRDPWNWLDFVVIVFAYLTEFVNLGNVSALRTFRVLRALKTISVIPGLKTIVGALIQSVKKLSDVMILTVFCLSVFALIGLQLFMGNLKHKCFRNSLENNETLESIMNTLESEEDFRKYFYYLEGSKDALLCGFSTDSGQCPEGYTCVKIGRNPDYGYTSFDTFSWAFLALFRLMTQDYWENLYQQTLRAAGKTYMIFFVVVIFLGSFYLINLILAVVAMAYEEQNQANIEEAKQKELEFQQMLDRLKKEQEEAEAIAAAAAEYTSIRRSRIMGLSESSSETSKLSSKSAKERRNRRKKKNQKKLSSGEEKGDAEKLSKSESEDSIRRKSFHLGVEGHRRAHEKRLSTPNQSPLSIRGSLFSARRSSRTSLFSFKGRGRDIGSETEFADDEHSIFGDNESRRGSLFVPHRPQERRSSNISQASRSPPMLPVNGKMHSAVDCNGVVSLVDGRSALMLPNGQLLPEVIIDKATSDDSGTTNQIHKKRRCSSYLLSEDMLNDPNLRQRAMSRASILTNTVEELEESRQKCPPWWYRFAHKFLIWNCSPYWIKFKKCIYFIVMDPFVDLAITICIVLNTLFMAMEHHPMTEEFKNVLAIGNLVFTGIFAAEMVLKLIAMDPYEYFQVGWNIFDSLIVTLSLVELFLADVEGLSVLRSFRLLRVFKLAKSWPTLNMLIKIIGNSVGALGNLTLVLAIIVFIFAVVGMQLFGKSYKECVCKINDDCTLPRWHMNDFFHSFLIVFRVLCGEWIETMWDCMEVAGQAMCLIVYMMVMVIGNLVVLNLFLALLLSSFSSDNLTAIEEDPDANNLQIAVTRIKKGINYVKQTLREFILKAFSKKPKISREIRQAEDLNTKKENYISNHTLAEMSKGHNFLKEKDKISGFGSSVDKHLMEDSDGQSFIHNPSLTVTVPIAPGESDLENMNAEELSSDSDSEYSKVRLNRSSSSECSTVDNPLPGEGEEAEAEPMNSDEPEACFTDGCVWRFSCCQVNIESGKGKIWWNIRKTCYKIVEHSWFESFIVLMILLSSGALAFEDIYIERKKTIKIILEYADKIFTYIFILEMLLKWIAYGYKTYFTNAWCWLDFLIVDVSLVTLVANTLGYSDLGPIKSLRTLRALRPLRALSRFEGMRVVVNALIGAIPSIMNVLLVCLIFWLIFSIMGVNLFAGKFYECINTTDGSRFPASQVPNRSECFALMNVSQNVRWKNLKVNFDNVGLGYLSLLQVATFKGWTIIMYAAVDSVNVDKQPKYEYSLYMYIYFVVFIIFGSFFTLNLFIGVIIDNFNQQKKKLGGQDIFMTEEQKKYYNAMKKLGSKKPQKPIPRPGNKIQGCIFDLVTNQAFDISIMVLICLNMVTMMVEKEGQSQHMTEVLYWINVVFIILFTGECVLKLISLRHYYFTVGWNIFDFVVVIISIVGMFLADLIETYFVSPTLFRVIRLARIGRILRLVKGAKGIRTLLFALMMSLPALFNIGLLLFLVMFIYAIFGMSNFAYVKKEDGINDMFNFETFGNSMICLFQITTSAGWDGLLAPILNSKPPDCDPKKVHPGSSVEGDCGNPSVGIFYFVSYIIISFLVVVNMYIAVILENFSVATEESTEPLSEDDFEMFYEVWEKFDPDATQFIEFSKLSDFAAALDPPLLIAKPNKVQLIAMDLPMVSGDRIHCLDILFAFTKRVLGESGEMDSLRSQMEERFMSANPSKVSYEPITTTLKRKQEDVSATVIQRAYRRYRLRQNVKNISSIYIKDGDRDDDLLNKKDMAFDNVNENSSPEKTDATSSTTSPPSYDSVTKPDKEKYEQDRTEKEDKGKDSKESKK

inhibition of Nav 1.7 compared to an 1800 mg dose of gabapentin: > 6 fold
Compound: COCCOC(=O)C1=C(C)NC(C)=C(C(=O)OC/C=C/c2ccccc2)C1c1cccc([N+](=O)[O-])c1 (stereo not shown) [cilnidipine]
